The test system of assay [1] is lymphoblasts. Briefly: Rate of drop in membrane potential (repolarization rate) in lymphoblasts. In kind it is cell-based, human. How it is done: As the Na^+K^+ ATPase density on the cell surface increases, the intracellular sodium concentration decreases and the membrane potential begins to drop as a result of repolarization of the cell membrane. The rate of drop in membrane potential (repolarization rate) in affected cells incubated for 30 minutes in both K^+-free buffer and in K^+-containing (regular) buffer in the presence or absence of 30 μM ethacrynate was compared to that of unaffected cells incubated for 30 minutes in both K^+-free buffer and in K^+-containing buffer in the presence or absence of 30 μM ethacrynate. The difference in the median values between the two groups was greater than would be expected by chance.
The rate of drop in membrane potential after incubation with the protein kinase C (PKC) activator, phorbol 12-myristate 13-acetate (PMA), was compared in affected cells to that of unaffected cells. The membrane potential of these cells was determined by measuring the fluorescence intensity as described above. The rate of drop in membrane potential (repolarization rate) in affected cells was compared to that in unaffected cells in K^+-free buffer in the presence or absence of 2 μM PMA. The difference in the median values between the two groups was greater than would be expected by chance.
The rate of drop in membrane potential (repolarization rate) in affected cells incubated for 30 minutes in both K^+-free buffer and in K^+-containing (regular) buffer in the presence or absence of 2 μM PMA was compared to that of unaffected cells incubated for 30 minutes in both K^+-free buffer and in K^+-containing buffer in the presence or absence of 2 μM PMA. The difference in the median values between the two groups was greater than would be expected by chance.

For assay [2], the system named is lymphoblasts. Briefly: Membrane potential of lymphoblasts by DiOC6(3) fluorescence intensity ratio. In kind it is cell-based, human. How it is done:
Three groups of immortalized lymphoblast samples were obtained from the Human Genetic Mutant Cell Repository (Coriell Institute for Medical Research, Camden N.J.). The samples are shown in Table 4 below and included six from affected (bipolar I disorder) patients (A1 through A6), six from their siblings (S1 through S6), and six from unrelated normal control subjects matched by age and sex (N1 through N6).
The cells were grown at 37° C. in RPMI 1640 culture medium (GIBCO, Life Technologies, Gaithersburg, Md., USA) with 15% fetal bovine serum and 1% penicillin.
The membrane potentials of the bipolar I cells shown in Table 4 above (as well as in all other experiments, except where indicated) were measured using the following protocol. The cells cultured in the media described above were centrifuged at 210 g for 5 minutes at room temperature, then suspended in 3 ml of K^+-containing stock buffer (5 mM KCl, 4 mM NaHCO3, 5 mM HEPES, 134 mM NaCl, 2.3 mM CaCl2, and 5 mM glucose). The cells were counted and the desired number of cells were again suspended in the K^+-containing buffer. The membrane potentials were measured using 3,3′-dihexyloxacarbocyanine iodide DiOC6(3), a cell-permeant, voltage sensitive, green-fluorescent dye (Molecular Probes Inc. Eugene, Oreg. USA). The cells were preincubated for 30 minutes before measurements. The preincubated cell suspension was centrifuged at 210 g for 5 minutes and the cells were resuspended in the K^+-containing buffer without the dye in the buffer.
A fluorescence spectrometer (F2500 Hitachi, Japan) was used for the measurement of the membrane potential by measuring the fluorescence intensity of DiOC6(3), which is directly proportional to the membrane potential. The intensity of fluorescence was measured at an excitation wavelength of 488 nm and an output wavelength of 540 nm. The time of recordings varied from 10 seconds to 1500 seconds depending upon the experiment.
Membrane potential was expressed according to fluorescence intensity using the following equation: I=CV, wherein I is the fluorescence intensity of a lipophilic fluorescent dye DiOC6(3) being only one example of such a dye); V is the voltage or membrane potential; and C is a constant that can vary depending on a number of factors such as, but not limited to, temperature, lamp intensity, number of cells, concentration of the fluorescent dye, incubation time, and lipid composition of cells used. By using the ratio of the fluorescence intensity (I1) of one sample of cells to the fluorescence intensity (I2) of another sample of cells, the constant (C) could be canceled out
Membrane potentials were also measured in K^+-free buffer to enable comparison with membrane potentials in K^+-containing buffer. As used herein, K^+-free buffer contains all of the components of the K^+-containing buffer, except potassium (4 mM NaHCO3, 5 mM HEPES, 134 mM NaCl, 2.3 mM CaCl2, and 5 mM glucose). Constant volumes of samples of each cell line were added to an equal volume of buffer containing an equal volume of dye. […] Each variable was constant for each cell line in both buffers, so that the ratio of intensities was a true ratio-metric measurement.
The relative fluorescence intensity ratio of cells in K^+-free buffer was compared to that of cells in K^+-containing buffer with or without 30 μM ethacrynate. […] The membrane potential of these cells was determined by measuring the fluorescence intensity as described above. […]

The test system of assay [3] is whole blood cells. Briefly: Open clinical trial: fluorescence intensity ratio of whole blood cells. It is filed as cell-based, human. How it is done:
A pilot clinical trial was conducted using blood samples from 12 clinically affected bipolar patients and 11 unaffected controls. The medical histories of the patients were known to the investigator measuring the membrane potentials; therefore, the trials described in this example were open trials. The patients ranged from 19 years to 77 years in age, and included males and females from different ethnic groups. Similarly, the controls ranged from 25 to 67 including males and females from different ethnic groups. The patients were all hospitalized following a confirmed manic episode. During the drawing of samples, all patients were on mood stabilizers, either lithium or valproate.
Because the volume of blood required to collect enough lymphocytes was beyond that permitted by the current protocol, the membrane potential of whole blood cells was determined. The volume of whole blood required was approximately 1 ml. The blood samples were kept on ice until they were stored at 4° C. All of the samples were tested within 48 hours.
Whole blood samples drawn from patients and controls were suspended in K^+-containing buffer without ethacrynate and in K^+-free buffer with 30 μM ethacrynate or with 100 mM sorbitol. The fluorescent dye DiOC6(3) was added to both suspensions and incubated for 30 minutes. The cell suspensions loaded with the dye were centrifuged, drained and resuspended in the respective buffers. The fluorescence intensity was measured for 10 seconds and the ratio of the intensity in K^+-free buffer to the intensity in K^+-containing buffer was calculated.

The subject of assay [4] is whole blood cells. Briefly: Blind clinical trial and individual patient diagnosis: fluorescence intensity ratio of whole blood cells. In kind it is cell-based, human. The following applies: 30 μM ethacrynate. How it is done:
A clinical trial was conducted using blood samples from the following four groups: schizophrenic, bipolar, and unipolar patients, as well as controls. The medical histories of these patients were unknown to the investigator measuring the membrane potentials; therefore, the trials described in this example were blind trials. The sample size was determined to be 5 with a power of 0.9, an alpha of 0.05, a difference in mean of 0.08, and a standard deviation of 0.03. However, more than 10 samples for each category were tested for a total sample size of 59. If a patient matched a diagnosis, structured clinical interviews according to DSM-IV guidelines were performed.
Whole blood samples drawn from patients and controls were suspended both in K^+-containing buffer and in K^+-free buffer with 30 μM ethacrynate or with 100 μM sorbitol. The fluorescent dye DiOC6(3) was added to both suspensions and incubated for 30 minutes. The cell suspensions loaded with the dye were centrifuged, drained and resuspended in the respective buffers. The fluorescence intensity was measured for 10 seconds and the ratio of the intensity in K^+-free buffer to the intensity in K^+-containing buffer was calculated.
An individual patient's cell sample was tested as described herein and six to twelve ratios were calculated. These values were treated as a group and compared with a normal control group (negative control) and a bipolar group (positive control).

For assay [5] the following is noted: antibiotic ionophore; cited from earlier work.
Setting [6] is: Bipolars, 30 μM ethacrynate, whole blood.
The mark [7] stands for this setting: Controls, 30 μM ethacrynate, whole blood.
[8] abbreviates: blind trial, Bipolars, whole blood.
Where [9] appears, read: blind trial, Controls, whole blood.
The mark [10] stands for this setting: blind trial, Schizophr., whole blood.
[11] abbreviates: blind trial, Unipolars, whole blood.

Regarding `CCCCCCCCCCCCCC(=O)O[C@@H]1[C@@H](C)[C@@]2(O)[C@@H](C=C(CO)C[C@]3(O)C(=O)C(C)=C[C@@H]23)[C@@H]2C(C)(C)[C@]12OC(C)=O` [PMA, phorbol 12-myristate 13-acetate], the “relative ratio of repolarization rates in affected cells compared to unaffected cells” value in the assay on lymphoblasts [1] (2 μM PMA, 30 min, K+-free and K+-containing buffer, P=0.046) was “significantly lower”. Besides, the “repolarization rate (with PMA/without PMA) in affected cells compared to unaffected cells” value with lymphoblasts [1] (K+-free buffer, 2 μM PMA, t-test P=0.029) is on record as “significantly different”.
As to `C=C(CC)C(=O)c1ccc(OCC(=O)O)c(Cl)c1Cl` [ethacrynate], the “relative intensity ratio of affected cells compared to unaffected cells” value with lymphoblasts [2] (30 μM ethacrynate, 30 min, K+-free vs K+-containing buffer, t-test P=0.009) was “significantly higher”. Moreover, the “intensity ratio (membrane potential with ethacrynate/without ethacrynate) of affected cells compared to unaffected cells” value in the assay with lymphoblasts [2] (K+-free buffer, 30 μM ethacrynate, t-test P=0.032) is “significantly higher”. Also, the “relative intensity ratio, mean (intensity ratio with/without ethacrynate in K+-free buffer divided by that in K+-containing buffer)” value with lymphoblasts [2] (affected (bipolar I) cells, 30 μM ethacrynate, 30 min) was “approximately 1.04”; in the assay with lymphoblasts [2] (unaffected (sibling and normal) cells, 30 μM ethacrynate, 30 min) it was “approximately 0.79”. For the same compound, the “relative rate of repolarization in affected cells compared to unaffected cells” value with lymphoblasts [1] (30 μM ethacrynate, 30 min, K+-free and K+-containing buffer, P=0.041) is “significantly higher”. The “mean fluorescence intensity ratio of bipolar samples compared to control samples” value in the assay with whole blood cells [3] (30 μM ethacrynate, t-test) was “significantly lower”. Further, the “ratio of fluorescence intensity in K+-free buffer with ethacrynate to K+-containing buffer without ethacrynate, Mean” value in the assay on whole blood cells [3] (setting [6]) came to 0.780; in the assay with whole blood cells [3] (setting [7]) it was 0.893; with whole blood cells [4] (Patient A), 0.766; in the assay with whole blood cells [4] (setting [8]), 0.768; in the assay with whole blood cells [4] (setting [9]), 0.850; in the assay on whole blood cells [4] (setting [10]), 0.870. The “ratio of fluorescence intensity in K+-free buffer with ethacrynate to K+-containing buffer without ethacrynate, Mean” value in the assay on whole blood cells [4] (setting [11]) turned out to be 0.898. In addition, the “ratio of fluorescence intensity in K+-free buffer with ethacrynate to K+-containing buffer without ethacrynate, Median” value amounted to 0.778 in the assay on whole blood cells [3] (setting [6]); 0.893 with whole blood cells [3] (setting [7]); 0.763 with whole blood cells [4] (Patient A); 0.773 in the assay with whole blood cells [4] (setting [8]); 0.850 with whole blood cells [4] (setting [9]); 0.863 in the assay with whole blood cells [4] (setting [10]). Further, the “ratio of fluorescence intensity in K+-free buffer with ethacrynate to K+-containing buffer without ethacrynate, Median” value in the assay with whole blood cells [4] (setting [11]) was 0.901. In the assay on whole blood cells [4] (blind trial, ANOVA), the “fluorescence intensity ratio of bipolar samples compared to the other three groups” value is given as “significantly lower”. Besides, in the assay with whole blood cells [4] (blind trial, ANOVA), the “fluorescence intensity ratio of unipolar samples compared to the other three groups” value is “significantly higher”.
As to `CC[C@@]1([C@@H]2O[C@@H]([C@H]3O[C@@](O)(CO)[C@H](C)C[C@@H]3C)C[C@@H]2C)CC[C@H]([C@]2(C)CC[C@]3(C[C@H](O)[C@@H](C)[C@@H]([C@@H](C)[C@@H](OC)[C@H](C)C(=O)O)O3)O2)O1` [monensin], the “intensity ratio (membrane potential with monensin/without monensin) of affected cells compared to unaffected cells” value with lymphoblasts [2] (K+-free buffer, 10 μM monensin, 30 min, t-test P=0.009) is reported as “significantly lower”. Besides, in assay [5], the “preference for Na+ over K+” value is given as 10 fold.
As for `OC[C@@H](O)[C@@H](O)[C@H](O)[C@@H](O)CO` [sorbitol], the “fluorescence intensity ratios of bipolar cells with sorbitol compared to ethacrynate” value with whole blood cells [3] (bipolar patients, 100 mM sorbitol in K+-free buffer, whole blood) is on record as “comparable”.

The values are drawn from patent publication US7425410B2, “Methods for diagnosing a bipolar disorder and unipolar disorder” (Free State Diagnostics, LLC, priority 2003, dated 2008).
